{"source": "patent US20210230203A1", "about": "“Amphiphilic Kanamycin Compositions and Methods” (priority 2020, published 2021)", "key": {"Apaphysomyces": {"system": "Apaphysomyces", "assay": "MIC against various species, CLSI M27 & M38 (Table 4)", "type": "cell-based, Apophysomyces", "conditions": "24-72 hours"}, "Coccidioldes sp.": {"system": "Coccidioldes sp.", "assay": "microbe, parasite or virus in culture", "type": "cell-based, Coccidioides species", "conditions": "Table 3, RPMI 0.165M MOPS, 24-72 hours"}, "Candida albicans MYA2876": {"system": "Candida albicans MYA2876", "assay": "MIC against fungal strains (Table 1)", "type": "cell-based", "conditions": "Candida albicans MYA2876"}, "Candida parapsilosis": {"system": "Candida parapsilosis", "assay": "MIC against yeast, CLSI M27 & M38 (Table 2)", "conditions": "Table 2, RPMI 0.165M MOPS, 24-72 hours"}, "Candida auris": {"system": "Candida auris", "assay": "MIC against yeast, CLSI M27 & M38 (Table 2)", "conditions": "24-72 hours"}, "E. coli (25922)": {"system": "E. coli (25922)", "assay": "MIC against bacterial strains", "type": "cell-based"}, "Candida albicans 64124": {"system": "Candida albicans 64124", "assay": "MIC against fungal strains (Table 1)", "type": "cell-based"}, "Candida glabrata": {"system": "Candida glabrata", "assay": "MIC against yeast, CLSI M27 & M38 (Table 2)", "conditions": "24-72 hours"}, "[1]": {"conditions": "Apaphysomyces APO1, RPMI 0.165M MOPS"}, "[2]": {"conditions": "Apaphysomyces APO2, RPMI 0.165M MOPS"}, "[3]": {"conditions": "Apaphysomyces APO3, RPMI 0.165M MOPS"}, "[4]": {"conditions": "Candida auris CAU1, RPMI 0.165M MOPS"}, "[5]": {"conditions": "Candida auris CAU2, RPMI 0.165M MOPS"}, "[6]": {"conditions": "Candida auris CAU3, RPMI 0.165M MOPS"}, "[7]": {"conditions": "Candida auris CAU4, RPMI 0.165M MOPS"}, "[8]": {"conditions": "Candida auris CAU5, RPMI 0.165M MOPS"}, "[9]": {"conditions": "Candida auris CAU6, RPMI 0.165M MOPS"}, "[10]": {"conditions": "Candida auris CAU7, RPMI 0.165M MOPS"}, "[11]": {"conditions": "Candida auris DI17-46, RPMI 0.165M MOPS"}, "[12]": {"conditions": "Candida auris DI17-47, RPMI 0.165M MOPS"}, "[13]": {"conditions": "Candida auris DI17-48, RPMI 0.165M MOPS"}, "[14]": {"conditions": "Candida glabrata CG1, RPMI 0.165M MOPS"}, "[15]": {"conditions": "Candida glabrata CG2, RPMI 0.165M MOPS"}, "[16]": {"conditions": "Candida glabrata CG3, RPMI 0.165M MOPS"}}, "data": [{"smiles": "CCCCCCCCCCCCCCCC(=O)NC[C@H]1O[C@H](O[C@H]2[C@H](O)[C@@H](O[C@H]3O[C@H](CO)[C@@H](O)[C@H](N)[C@H]3O)[C@H](N)C[C@@H]2N)[C@H](O)[C@@H](O)[C@@H]1O", "note": "[KI06]", "values": [{"measurement": "Minimum inhibitory concentration 50%", "setting": "Apaphysomyces; [1]", "result": 2, "unit": "µg/mL"}, {"measurement": "Minimum inhibitory concentration 100%", "setting": "Apaphysomyces; [1]", "result": 2, "unit": "µg/mL"}, {"measurement": "Minimum inhibitory concentration 50%", "setting": "Apaphysomyces; [2]", "result": 1, "unit": "µg/mL"}, {"measurement": "Minimum inhibitory concentration 100%", "setting": "Apaphysomyces; [2]", "result": 4, "unit": "µg/mL"}, {"measurement": "Minimum inhibitory concentration 50%", "setting": "Apaphysomyces; [3]", "result": 1, "unit": "µg/mL"}, {"measurement": "Minimum inhibitory concentration 100%", "setting": "Apaphysomyces; [3]", "result": 4, "unit": "µg/mL"}, {"measurement": "Minimum inhibitory concentration 50%", "setting": "Coccidioldes sp.; Coccidioldes sp. Cocci1", "result": 4, "unit": "µg/mL"}, {"measurement": "Minimum inhibitory concentration 100%", "setting": "Coccidioldes sp.; Coccidioldes sp. Cocci1", "result": 8, "unit": "µg/mL"}, {"measurement": "Minimum inhibitory concentration 50%", "setting": "Coccidioldes sp.; Coccidioldes sp. Cocci2", "result": 4, "unit": "µg/mL"}, {"measurement": "Minimum inhibitory concentration 100%", "setting": "Coccidioldes sp.; Coccidioldes sp. Cocci2", "result": 8, "unit": "µg/mL"}, {"measurement": "Minimum inhibitory concentration 50%", "setting": "Coccidioldes sp.; Coccidioldes sp. DI17-143", "result": 4, "unit": "µg/mL"}, {"measurement": "Minimum inhibitory concentration 100%", "setting": "Coccidioldes sp.; Coccidioldes sp. DI17-143", "result": 8, "unit": "µg/mL"}, {"measurement": "Minimum inhibitory concentration", "setting": "Candida albicans MYA2876", "result": 8, "unit": "µg/mL"}, {"measurement": "Minimum inhibitory concentration 50%", "setting": "Candida parapsilosis; C. parapsilosis ATCC 22019", "result": 4, "unit": "µg/mL"}, {"measurement": "Minimum inhibitory concentration 100%", "setting": "Candida parapsilosis; C. parapsilosis ATCC 22019", "result": 8, "unit": "µg/mL"}, {"measurement": "Minimum inhibitory concentration 50%", "setting": "Candida parapsilosis; Candida parapsilosis CP1", "result": 4, "unit": "µg/mL"}, {"measurement": "Minimum inhibitory concentration 100%", "setting": "Candida parapsilosis; Candida parapsilosis CP1", "result": 8, "unit": "µg/mL"}, {"measurement": "Minimum inhibitory concentration 50%", "setting": "Candida parapsilosis; Candida parapsilosis CP2", "result": 4, "unit": "µg/mL"}, {"measurement": "Minimum inhibitory concentration 100%", "setting": "Candida parapsilosis; Candida parapsilosis CP2", "result": 8, "unit": "µg/mL"}, {"measurement": "Minimum inhibitory concentration 50%", "setting": "Candida parapsilosis; Candida parapsilosis CP3", "result": 8, "unit": "µg/mL"}, {"measurement": "Minimum inhibitory concentration 100%", "setting": "Candida parapsilosis; Candida parapsilosis CP3", "result": 16, "unit": "µg/mL"}, {"measurement": "Minimum inhibitory concentration 50%", "setting": "Candida auris; [4]", "result": 4, "unit": "µg/mL"}, {"measurement": "Minimum inhibitory concentration 100%", "setting": "Candida auris; [4]", "result": 8, "unit": "µg/mL"}, {"measurement": "Minimum inhibitory concentration 50%", "setting": "Candida auris; [5]", "result": 4, "unit": "µg/mL"}, {"measurement": "Minimum inhibitory concentration 100%", "setting": "Candida auris; [5]", "result": 8, "unit": "µg/mL"}, {"measurement": "Minimum inhibitory concentration 50%", "setting": "Candida auris; [6]", "result": 4, "unit": "µg/mL"}, {"measurement": "Minimum inhibitory concentration 100%", "setting": "Candida auris; [6]", "result": 8, "unit": "µg/mL"}, {"measurement": "Minimum inhibitory concentration 50%", "setting": "Candida auris; [7]", "result": 8, "unit": "µg/mL"}, {"measurement": "Minimum inhibitory concentration 100%", "setting": "Candida auris; [7]", "result": 8, "unit": "µg/mL"}, {"measurement": "Minimum inhibitory concentration 50%", "setting": "Candida auris; [8]", "result": 8, "unit": "µg/mL"}, {"measurement": "Minimum inhibitory concentration 100%", "setting": "Candida auris; [8]", "result": 8, "unit": "µg/mL"}, {"measurement": "Minimum inhibitory concentration 50%", "setting": "Candida auris; [9]", "result": 4, "unit": "µg/mL"}, {"measurement": "Minimum inhibitory concentration 100%", "setting": "Candida auris; [9]", "result": 8, "unit": "µg/mL"}, {"measurement": "Minimum inhibitory concentration 50%", "setting": "Candida auris; [10]", "result": 4, "unit": "µg/mL"}, {"measurement": "Minimum inhibitory concentration 100%", "setting": "Candida auris; [10]", "result": 8, "unit": "µg/mL"}, {"measurement": "Minimum inhibitory concentration 50%", "setting": "Candida auris; [11]", "result": 8, "unit": "µg/mL"}, {"measurement": "Minimum inhibitory concentration 100%", "setting": "Candida auris; [11]", "result": 8, "unit": "µg/mL"}, {"measurement": "Minimum inhibitory concentration 50%", "setting": "Candida auris; [12]", "result": 8, "unit": "µg/mL"}, {"measurement": "Minimum inhibitory concentration 100%", "setting": "Candida auris; [12]", "result": 8, "unit": "µg/mL"}, {"measurement": "Minimum inhibitory concentration 50%", "setting": "Candida auris; [13]", "result": 4, "unit": "µg/mL"}, {"measurement": "Minimum inhibitory concentration 100%", "setting": "Candida auris; [13]", "result": 8, "unit": "µg/mL"}, {"measurement": "Minimum inhibitory concentration", "setting": "E. coli (25922)", "result": 32, "unit": "µg/mL"}, {"measurement": "Minimum inhibitory concentration", "setting": "Candida albicans 64124", "result": 8, "unit": "µg/mL"}, {"measurement": "Minimum inhibitory concentration 50%", "setting": "Candida glabrata; [14]", "result": 4, "unit": "µg/mL"}, {"measurement": "Minimum inhibitory concentration 100%", "setting": "Candida glabrata; [14]", "result": 8, "unit": "µg/mL"}, {"measurement": "Minimum inhibitory concentration 50%", "setting": "Candida glabrata; [15]", "result": 4, "unit": "µg/mL"}, {"measurement": "Minimum inhibitory concentration 100%", "setting": "Candida glabrata; [15]", "result": 4, "unit": "µg/mL"}, {"measurement": "Minimum inhibitory concentration 50%", "setting": "Candida glabrata; [16]", "result": 4, "unit": "µg/mL"}, {"measurement": "Minimum inhibitory concentration 100%", "setting": "Candida glabrata; [16]", "result": 4, "unit": "µg/mL"}]}]}
